Among the test systems are M14 melanoma; OVCAR-3 ovarian; RPMI-8226 leukemia; SF-268 CNS; SK-MEL-2 melanoma; SK-MEL-5 melanoma; U251 CNS.
Common to all, as to experiment: NCI anticancer screen, dose series, 48 h

Data on 28 compounds can be found in PubChem BioAssay (NCI).

The structures appear in SMILES notation.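 1) Cells in 96-well plates. 2) Compound, 48 h, 5 concentrations. 3) Linear interpolation between surrounding doses. 4) Unreached endpoint = highest concentration. Here, GI50 denotes the concentration required for 50% inhibition of growth. TGI: total growth inhibition.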

`CCOc1ccc2c(c1)[n+]([O-])c(-c1ccc(Cl)cc1)c(N)[n+]2[O-]`: the TGI in the assay with M14 melanoma, in the assay with OVCAR-3 ovarian, in the assay on RPMI-8226 leukemia, in the assay on SF-268 CNS, in the assay on SK-MEL-2 melanoma and in the assay with SK-MEL-5 melanoma was over 100 µM in each case. The compound further showed a TGI with U251 CNS of over 100 µM.
`COc1ccc(Br)c(N/N=C2\CCCNC2=O)c1`: the TGI in the assay with M14 melanoma, with OVCAR-3 ovarian, with RPMI-8226 leukemia, in the assay on SK-MEL-2 melanoma, in the assay with SK-MEL-5 melanoma and with U251 CNS was over 100 µM in each case.
As to `CCN(CC)c1c(C(=O)/C=C/c2ccc(OC)cc2)c(-c2ccccc2)nn(C)c1=O`, the TGI with SF-268 CNS turned out to be 73.1 µM; in the assay on SK-MEL-2 melanoma it was 38.7 µM; in the assay on SK-MEL-5 melanoma, 21.5 µM; in the assay on U251 CNS it was 32.7 µM.
In the case of `CCOC(=O)N1CCN(C=S)CC1`, the TGI in the assay on M14 melanoma, in the assay with OVCAR-3 ovarian, in the assay with SF-268 CNS, in the assay on SK-MEL-2 melanoma, with SK-MEL-5 melanoma and with U251 CNS was over 100 µM each time.
As to `O=[N+]([O-])c1cc(C(F)(F)F)cc([N+](=O)[O-])c1CCl`, the TGI is 1.59 µM in the assay on M14 melanoma; 10.5 µM in the assay with OVCAR-3 ovarian; 3.49 µM in the assay on RPMI-8226 leukemia; 27.2 µM in the assay with SF-268 CNS; over 26.7 µM with SK-MEL-2 melanoma; 1.75 µM in the assay with SK-MEL-5 melanoma. Besides, the TGI in the assay with U251 CNS worked out at 14.2 µM.
Regarding `O=C(O)C(SC(=S)c1ccc(C(=S)SC(C(=O)O)c2ccccc2)cc1)c1ccccc1` (stereo unspecified), the TGI with M14 melanoma, with OVCAR-3 ovarian, with RPMI-8226 leukemia, with SF-268 CNS, with SK-MEL-2 melanoma and in the assay with SK-MEL-5 melanoma was over 100 µM each time. Also, the TGI in the assay on U251 CNS is over 100 µM.
As to `CN1C(=Nc2ccccc2)SC1=Nc1ccccc1`, the TGI in the assay with M14 melanoma, in the assay on OVCAR-3 ovarian, in the assay on RPMI-8226 leukemia, in the assay on SF-268 CNS, with SK-MEL-2 melanoma and in the assay with SK-MEL-5 melanoma was over 100 µM throughout. In the assay on U251 CNS, this compound yielded a TGI of over 100 µM.
On to `Cc1cc(=O)n(-c2ccccc2C)c(C)n1`, for which the TGI in the assay on M14 melanoma, in the assay on OVCAR-3 ovarian, in the assay with SF-268 CNS, in the assay with SK-MEL-2 melanoma, with SK-MEL-5 melanoma and in the assay with U251 CNS was over 100 µM each time.
In the case of `CCCCOC(=O)C1C2CCC(O2)C1C(=O)OCCCC` (stereo unspecified), the TGI with M14 melanoma was over 82.1 µM; in the assay on OVCAR-3 ovarian it was over 100 µM; with RPMI-8226 leukemia, over 68.5 µM; in the assay on SF-268 CNS, over 100 µM; in the assay with SK-MEL-2 melanoma, over 100 µM; in the assay with SK-MEL-5 melanoma, over 100 µM. Besides, in the assay with U251 CNS, the TGI was over 100 µM.
For `CC(=O)CC(=O)OC1CC(C)CCC1C(C)C` (stereo unspecified), the TGI with M14 melanoma is over 100 µM; in the assay on OVCAR-3 ovarian, over 100 µM; in the assay with RPMI-8226 leukemia, 46.1 µM; with SF-268 CNS, over 100 µM; in the assay with SK-MEL-2 melanoma, 78.8 µM; in the assay with SK-MEL-5 melanoma it was over 100 µM. The TGI in the assay with U251 CNS was over 100 µM.
Turning to `CCC[CH2][Sn]1([CH2]CCC)[O]C(=O)c2cccnc2[O]1`, the GI50 in the assay with M14 melanoma is 3.11 µM; in the assay on OVCAR-3 ovarian, 1.91 µM; in the assay on RPMI-8226 leukemia, 1.74 µM; in the assay with SK-MEL-2 melanoma it was 1.71 µM; in the assay with SK-MEL-5 melanoma, 4.57 µM; with U251 CNS, 1.89 µM. The TGI in the assay with M14 melanoma is 10.6 µM; with OVCAR-3 ovarian, 8.16 µM; in the assay on RPMI-8226 leukemia it was 6.34 µM; in the assay with SK-MEL-2 melanoma, 3.81 µM; in the assay on SK-MEL-5 melanoma, 16.8 µM; in the assay with U251 CNS it was 3.79 µM.
For the compound `COC(=O)/C(C)=C(/CCC1(C)OCCO1)O[Si](C)(C)C`, the TGI in the assay on M14 melanoma, in the assay with OVCAR-3 ovarian, in the assay on RPMI-8226 leukemia, in the assay on SF-268 CNS, in the assay on SK-MEL-2 melanoma and in the assay on SK-MEL-5 melanoma was over 100 µM in each case. This compound registered a TGI in the assay on U251 CNS of over 100 µM.
As to `CCCCNc1nc(C#N)c(N)s1`, the TGI with M14 melanoma, in the assay with OVCAR-3 ovarian, with RPMI-8226 leukemia, in the assay on SF-268 CNS, in the assay on SK-MEL-2 melanoma and with U251 CNS was over 100 µM in each case.
In the case of `CN(C)CC/C(=N\Nc1ccc([N+](=O)[O-])cc1)c1ccccc1`, the TGI is 30.8 µM in the assay with M14 melanoma; 31.2 µM in the assay on OVCAR-3 ovarian; 30.6 µM in the assay with RPMI-8226 leukemia; 27.4 µM with SF-268 CNS; 28.2 µM in the assay on SK-MEL-2 melanoma; 28.5 µM in the assay on SK-MEL-5 melanoma. Besides, the TGI with U251 CNS amounted to 25.5 µM.
Consider `OC(c1ccccc1)(c1ccccc1)c1ccncc1`, for which the TGI with M14 melanoma, with OVCAR-3 ovarian, with RPMI-8226 leukemia, in the assay with SF-268 CNS, with SK-MEL-2 melanoma and in the assay on SK-MEL-5 melanoma was over 100 µM throughout. The TGI in the assay with U251 CNS is over 100 µM.
Regarding `Oc1c(C(Nc2cccc3cccnc23)c2ccccc2)ccc2cccnc12` (stereo unspecified), the TGI with OVCAR-3 ovarian, in the assay with RPMI-8226 leukemia and with SF-268 CNS was over 100 µM in each case.
Turning to `COC1CC(OS(=O)(=O)c2ccc([N+](=O)[O-])cc2)C(OC(=O)c2ccccc2)C(C)O1` (stereo unspecified), the TGI in the assay with M14 melanoma, in the assay with OVCAR-3 ovarian, in the assay on RPMI-8226 leukemia, in the assay on SF-268 CNS, in the assay with SK-MEL-5 melanoma and with U251 CNS was over 100 µM throughout.
`c1ccc2c(c1)cc(C1NCCc3[nH]cnc31)c1ccccc12` (stereo unspecified): the TGI was 36.7 µM in the assay with M14 melanoma; over 100 µM in the assay on OVCAR-3 ovarian; over 78.4 µM with RPMI-8226 leukemia; over 100 µM in the assay on SF-268 CNS; 36.5 µM in the assay with SK-MEL-2 melanoma; over 69.8 µM with SK-MEL-5 melanoma. Moreover, the TGI with U251 CNS is over 57.7 µM.
In the case of `CC(C)C1CC[C@@H](C)C[C@@]1(O)CC(N)=O` (stereo partly specified), the TGI with M14 melanoma, in the assay with OVCAR-3 ovarian, with RPMI-8226 leukemia, in the assay with SK-MEL-2 melanoma, in the assay with SK-MEL-5 melanoma and in the assay on U251 CNS was over 100 µM in each case.
Turning to `Clc1ccc(C2SCc3nc4ccccc4n32)c(Cl)c1` (stereo unspecified), the TGI in the assay on M14 melanoma came out at 28 µM; with OVCAR-3 ovarian, 27.3 µM; in the assay on RPMI-8226 leukemia it was 41.1 µM; with SF-268 CNS it was 31.1 µM; in the assay on SK-MEL-2 melanoma, 33.8 µM; with SK-MEL-5 melanoma, 20.4 µM. For the same compound, the TGI in the assay on U251 CNS was 32 µM.
Take `O=C([CH-]C(=O)c1ccccc1)c1ccccc1.O=C([CH-]C(=O)c1ccccc1)c1ccccc1.[La+3].[OH-].[OH3+]`: the GI50 is 16.8 µM in the assay on M14 melanoma; 11.1 µM in the assay with RPMI-8226 leukemia; 13.3 µM in the assay on SF-268 CNS; 15.1 µM in the assay on SK-MEL-2 melanoma; 10.3 µM with SK-MEL-5 melanoma; 15.2 µM in the assay on U251 CNS. Also, the TGI in the assay with M14 melanoma is 37.6 µM; with RPMI-8226 leukemia, 49.9 µM; in the assay with SF-268 CNS it was 59.5 µM; in the assay with SK-MEL-2 melanoma, 37.8 µM; in the assay with SK-MEL-5 melanoma, 23.9 µM; in the assay on U251 CNS, over 100 µM.
As for `Oc1ccccc1/C=C/c1csnn1`, the TGI with M14 melanoma, in the assay on OVCAR-3 ovarian, with RPMI-8226 leukemia, in the assay on SF-268 CNS, with SK-MEL-2 melanoma and with SK-MEL-5 melanoma was over 100 µM in each case. In the assay on U251 CNS, the TGI was over 100 µM.
As to `CCOC(=O)NC(=O)c1cn(CCOC(=O)CCCCCCCCC(=O)OCCn2cc(C(=O)NC(=O)OCC)c(=O)[nH]c2=O)c(=O)[nH]c1=O`, the TGI in the assay on M14 melanoma, with OVCAR-3 ovarian, in the assay with RPMI-8226 leukemia, in the assay on SF-268 CNS, in the assay with SK-MEL-2 melanoma and with SK-MEL-5 melanoma was over 100 µM in each case.
`COc1cc(/C=C2/C(=O)N(C(=O)OCC(C)C)C(Cc3cc(OC)c(OC)c(C)c3OC)C(=O)N2Cc2ccccc2)c(OC)c(C)c1OC` (stereo unspecified): the TGI in the assay on M14 melanoma, in the assay with OVCAR-3 ovarian, in the assay with RPMI-8226 leukemia, in the assay with SF-268 CNS, in the assay with SK-MEL-2 melanoma and in the assay with SK-MEL-5 melanoma was over 100 µM each time. The compound also had a TGI with U251 CNS of over 100 µM.
Regarding `CP1(=O)CCCCC1`, the TGI with M14 melanoma, in the assay on OVCAR-3 ovarian, with RPMI-8226 leukemia, in the assay on SF-268 CNS, in the assay with SK-MEL-2 melanoma and in the assay on SK-MEL-5 melanoma was over 100 µM throughout. Further, the TGI in the assay on U251 CNS was over 100 µM.
Turning to `Cc1ccc(S(=O)(=O)OC2CSS(=O)CC2OS(=O)(=O)c2ccc(C)cc2)cc1` (stereo unspecified), the TGI in the assay on M14 melanoma was found to be 27.4 µM; with OVCAR-3 ovarian, 31.8 µM; in the assay with RPMI-8226 leukemia, 27.6 µM; in the assay with SF-268 CNS it was 30.7 µM; in the assay on SK-MEL-5 melanoma, 30.1 µM; with U251 CNS, 28.1 µM.
As for `CCOc1ccccc1N1C(=O)C(=O)C(c2nc3ccccc3o2)C(=O)C1=O`, the TGI in the assay with M14 melanoma, in the assay with OVCAR-3 ovarian, with RPMI-8226 leukemia, with SF-268 CNS, in the assay with SK-MEL-2 melanoma and in the assay on SK-MEL-5 melanoma was over 100 µM in each case. The TGI with U251 CNS was over 100 µM.
As for `Nc1ccnc(=O)[nH]1`, the TGI in the assay on M14 melanoma, in the assay on OVCAR-3 ovarian, in the assay with RPMI-8226 leukemia, with SF-268 CNS, with SK-MEL-2 melanoma and with SK-MEL-5 melanoma was over 100 µM throughout. In the assay with U251 CNS, this compound registered a TGI of over 100 µM.
